Experimental data: ChEMBL document CHEMBL4004849, “Tetrazolylmethyl quinolines: Design, docking studies, synthesis, anticancer and antifungal analyses” (2017)
Values after ≈ are worked out from the molar mass of the structure shown. Active and inactive are the calls of the source. No cut-off for these calls is given here.

Legend:
Assay type in all cases: functional
[1] = test system: MDA-MB-435; assay: Growth inhibition of human MDA-MB-435 cells at 10^-5 M incubated for 48 hrs by sulforhodamine B assay relative to control
[2] = test system: OVCAR-3; assay: Growth inhibition of human OVCAR3 cells at 10^-5 M incubated for 48 hrs by sulforhodamine B assay relative to control
[3] = test system: MDA-MB-231; assay: Growth inhibition of human MDA-MB-231/ATCC cells at 10^-5 M incubated for 48 hrs by sulforhodamine B assay relative to control
[4] = test system: UACC-62; assay: Growth inhibition of human UACC62 cells at 10^-5 M incubated for 48 hrs by sulforhodamine B assay relative to control
[5] = test system: SF-268; assay: Growth inhibition of human SF268 cells at 10^-5 M incubated for 48 hrs by sulforhodamine B assay relative to control
[6] = test system: SK-MEL-28; assay: Growth inhibition of human SK-MEL-28 cells at 10^-5 M incubated for 48 hrs by sulforhodamine B assay relative to control
[7] = test system: SF-295; assay: Growth inhibition of human SF295 cells at 10^-5 M incubated for 48 hrs by sulforhodamine B assay relative to control
[8] = test system: Malme-3M; assay: Growth inhibition of human MALME-3M cells at 10^-5 M incubated for 48 hrs by sulforhodamine B assay relative to control
[9] = test system: Aspergillus fumigatus; assay: Antifungal activity against Aspergillus fumigatus at 100 ug/ml by disc diffusion method; conditions: read-out: IZ
[10] = test system: OVCAR-4; assay: Growth inhibition of human OVCAR4 cells at 10^-5 M incubated for 48 hrs by sulforhodamine B assay relative to control
[11] = test system: CAKI-1; assay: Growth inhibition of human Caki1 cells at 10^-5 M incubated for 48 hrs by sulforhodamine B assay relative to control
[12] = test system: HCC 2998; assay: Growth inhibition of human HCC2998 cells at 10^-5 M incubated for 48 hrs by sulforhodamine B assay relative to control
[13] = test system: NCI-H226; assay: Growth inhibition of human NCI-H226 cells at 10^-5 M incubated for 48 hrs by sulforhodamine B assay relative to control
[14] = test system: SK-OV-3; assay: Growth inhibition of human SKOV3 cells at 10^-5 M incubated for 48 hrs by sulforhodamine B assay relative to control
[15] = test system: A549; assay: Growth inhibition of human A549/ATCC cells at 10^-5 M incubated for 48 hrs by sulforhodamine B assay relative to control
[16] = test system: K562; assay: Growth inhibition of human K562 cells at 10^-5 M incubated for 48 hrs by sulforhodamine B assay relative to control
[17] = test system: SNB-19; assay: Growth inhibition of human SNB19 cells at 10^-5 M incubated for 48 hrs by sulforhodamine B assay relative to control
[18] = test system: MCF7; assay: Growth inhibition of human MCF7 cells at 10^-5 M incubated for 48 hrs by sulforhodamine B assay relative to control
[19] = test system: UACC-257; assay: Growth inhibition of human UACC257 cells at 10^-5 M incubated for 48 hrs by sulforhodamine B assay relative to control
[20] = test system: ACHN; assay: Growth inhibition of human ACHN cells at 10^-5 M incubated for 48 hrs by sulforhodamine B assay relative to control
[21] = test system: Candida albicans; assay: Antifungal activity against Candida albicans at 100 ug/ml by disc diffusion method; conditions: read-out: IZ
[22] = test system: SR; assay: Growth inhibition of human SR cells at 10^-5 M incubated for 48 hrs by sulforhodamine B assay relative to control
[23] = test system: MOLT-4; assay: Growth inhibition of human MOLT4 cells at 10^-5 M incubated for 48 hrs by sulforhodamine B assay relative to control
[24] = test system: OVCAR-5; assay: Growth inhibition of human OVCAR5 cells at 10^-5 M incubated for 48 hrs by sulforhodamine B assay relative to control
[25] = test system: HT-29; assay: Growth inhibition of human HT-29 cells at 10^-5 M incubated for 48 hrs by sulforhodamine B assay relative to control
[26] = test system: COLO 205; assay: Growth inhibition of human COLO205 cells at 10^-5 M incubated for 48 hrs by sulforhodamine B assay relative to control
[27] = test system: SK-MEL-5; assay: Growth inhibition of human SK-MEL-5 cells at 10^-5 M incubated for 48 hrs by sulforhodamine B assay relative to control
[28] = test system: OVCAR-8; assay: Growth inhibition of human OVCAR8 cells at 10^-5 M incubated for 48 hrs by sulforhodamine B assay relative to control
[29] = test system: KM12; assay: Growth inhibition of human KM12 cells at 10^-5 M incubated for 48 hrs by sulforhodamine B assay relative to control
[30] = test system: HCT-116; assay: Growth inhibition of human HCT116 cells at 10^-5 M incubated for 48 hrs by sulforhodamine B assay relative to control
[31] = test system: SF-539; assay: Growth inhibition of human SF539 cells at 10^-5 M incubated for 48 hrs by sulforhodamine B assay relative to control
[32] = test system: Aspergillus fumigatus; assay: Antifungal activity against Aspergillus fumigatus after 24 hrs by serial dilution method
[33] = test system: UO-31; assay: Growth inhibition of human UO31 cells at 10^-5 M incubated for 48 hrs by sulforhodamine B assay relative to control
[34] = test system: NCI-H23; assay: Growth inhibition of human NCI-H23 cells at 10^-5 M incubated for 48 hrs by sulforhodamine B assay relative to control
[35] = test system: Hs-578T; assay: Growth inhibition of human Hs 578T cells at 10^-5 M incubated for 48 hrs by sulforhodamine B assay relative to control
[36] = test system: U-251; assay: Growth inhibition of human U251 cells at 10^-5 M incubated for 48 hrs by sulforhodamine B assay relative to control
[37] = test system: BT-549; assay: Growth inhibition of human BT549 cells at 10^-5 M incubated for 48 hrs by sulforhodamine B assay relative to control
[38] = test system: MDA-MB-468; assay: Growth inhibition of human MDA-MB-468 cells at 10^-5 M incubated for 48 hrs by sulforhodamine B assay relative to control
[39] = test system: NCI-H522; assay: Growth inhibition of human NCI-H522 cells at 10^-5 M incubated for 48 hrs by sulforhodamine B assay relative to control
[40] = test system: M14; assay: Growth inhibition of human M14 cells at 10^-5 M incubated for 48 hrs by sulforhodamine B assay relative to control
[41] = test system: RXF 393; assay: Growth inhibition of human RXF393 cells at 10^-5 M incubated for 48 hrs by sulforhodamine B assay relative to control
[42] = test system: IGROV-1; assay: Growth inhibition of human IGROV1 cells at 10^-5 M incubated for 48 hrs by sulforhodamine B assay relative to control
[43] = test system: NCI-H460; assay: Growth inhibition of human NCI-H460 cells at 10^-5 M incubated for 48 hrs by sulforhodamine B assay relative to control
[44] = test system: SW-620; assay: Growth inhibition of human SW620 cells at 10^-5 M incubated for 48 hrs by sulforhodamine B assay relative to control

Fc1ccc2nc(Cl)c(Cn3nnnc3Cc3ccccc3)cc2c1
growth inhibition (GI) [1]: Active | growth inhibition (GI) [2]: Active | growth inhibition (GI) [3]: Active | growth inhibition (GI) [4]: Active | growth inhibition (GI) [5]: Active | growth inhibition (GI) [6]: Active | growth inhibition (GI) [7]: Active | growth inhibition (GI) [8]: Active | zone of inhibition at 100 µg/mL [9]: 10 mm | growth inhibition (GI) [10]: Active | growth inhibition (GI) [11]: Active | growth inhibition (GI) [12]: Active | growth inhibition (GI) [13]: Active | growth inhibition (GI) [14]: Active | growth inhibition (GI) [15]: Active | growth inhibition (GI) [16]: Active | growth inhibition (GI) [17]: Active | growth inhibition (GI) [18]: Active | growth inhibition (GI) [19]: Active | growth inhibition (GI) [20]: Active | zone of inhibition at 100 µg/mL [21]: 13 mm | growth inhibition (GI) [22]: Active | growth inhibition (GI) [23]: Active | growth inhibition (GI) [24]: Active | growth inhibition (GI) [25]: Active | growth inhibition (GI) [26]: Active | growth inhibition (GI) [27]: Active | growth inhibition (GI) [28]: Active | growth inhibition (GI) [29]: Active | growth inhibition (GI) [30]: Active | growth inhibition (GI) [31]: Active | MIC [32]: 10 µg/mL (≈ 28.3 µM) | growth inhibition (GI) [33]: Active | growth inhibition (GI) [34]: Active | growth inhibition (GI) [35]: Active | growth inhibition (GI) [36]: Active | growth inhibition (GI) [37]: Active | growth inhibition (GI) [38]: Active | growth inhibition (GI) [39]: Active | growth inhibition (GI) [40]: Active | growth inhibition (GI) [41]: Active | growth inhibition (GI) [42]: Active | growth inhibition (GI) [43]: Active | growth inhibition (GI) [44]: Active

Cc1ccc2nc(Cl)c(Cn3nnnc3CSc3ccccc3)cc2c1
growth inhibition (GI) [1]: Active | growth inhibition (GI) [2]: Active | growth inhibition (GI) [3]: Active | growth inhibition (GI) [4]: Active | growth inhibition (GI) [5]: Active | growth inhibition (GI) [6]: Active | growth inhibition (GI) [7]: Active | growth inhibition (GI) [8]: Active | zone of inhibition at 100 µg/mL [9]: 16 mm | growth inhibition (GI) [10]: Active | growth inhibition (GI) [11]: Active | growth inhibition (GI) [12]: Active | growth inhibition (GI) [13]: Active | growth inhibition (GI) [14]: Active | growth inhibition (GI) [15]: Active | growth inhibition (GI) [16]: Active | growth inhibition (GI) [17]: Active | growth inhibition (GI) [18]: Active | growth inhibition (GI) [19]: Active | growth inhibition (GI) [20]: Active | zone of inhibition at 100 µg/mL [21]: 12 mm | growth inhibition (GI) [22]: Active | growth inhibition (GI) [23]: Active | growth inhibition (GI) [24]: Active | growth inhibition (GI) [25]: Active | growth inhibition (GI) [26]: Active | growth inhibition (GI) [27]: Active | growth inhibition (GI) [28]: Active | growth inhibition (GI) [29]: Active | growth inhibition (GI) [30]: Active | growth inhibition (GI) [31]: Active | MIC [32]: 25 µg/mL (≈ 65.5 µM) | growth inhibition (GI) [33]: Active | growth inhibition (GI) [34]: Active | growth inhibition (GI) [35]: Active | growth inhibition (GI) [36]: Active | growth inhibition (GI) [37]: Active | growth inhibition (GI) [38]: Active | growth inhibition (GI) [39]: Active | growth inhibition (GI) [40]: Active | growth inhibition (GI) [41]: Active | growth inhibition (GI) [42]: Active | growth inhibition (GI) [43]: Active | growth inhibition (GI) [44]: Active
